# Measured values reported in patent US12714706B2, “Methods of treating small cell lung cancer with lurbinectedin formulations” (PHARMA MAR, S.A., priority 2019, dated 2026).
# Values joined by “and” are separate entries in the source; they are usually repeats but may differ in a detail not shown here. Equal entries are not always repeated. Where two headings read alike, the source gives them in different places.
# What was measured:
# [1] = Electrostatic charge measurements with a Faraday cage; type: physicochemical; conditions: dry nitrogen, 95% confidence
# Method: This technique consists in placing the sample to be measured (q) in the interior of the inner sphere (a) and measuring the difference of potential induced between sphere (a) and another conductor of reference, sphere (b). The external sphere (c) is grounded in order to shield the system.
# Measurements were carried out under controlled atmosphere of dry nitrogen in order to avoid the effect of ambient humidity on the electrostatic charge of the samples. Samples were introduced in glass capsules using non-conductor instrumental to avoid loses of electrostatic charge. The capsules loaded with the samples were introduced in the Faraday cage through a grounded conductor tube to avoid parasitic static charges in the glass capsule. The entry and removal of the capsules was done with a computer-controlled servo engine, in order to ensure a constant rate of introduction and removal of the capsules in each measurement to minimize the creation of static charges due to friction of the insulator elements.
# Results: Several measurements with different amounts of material were carried out for each batch of each form of lurbinectedin. Before loading the capsules, they were washed and their remaining static charge was measured in order to correct the levels. Each sample was introduced and removed five times and, after each introduction, several consecutive measurements were taken in order to average any possible drift effect.
# The data was fitted by lineal regression (dashed lines in FIGS. 9a and 9b) to obtain the charge density (Q/m) as the slope of the line.
# [2] = Analytical results and impurity profile of batches of Form A and Form B of lurbinectedin; type: physicochemical; set-up: Impurity RRT approx. 1.10-1.11 / Impurity RRT approx. 1.12 / Impurity RRT approx. 1.27-1.34 / Impurity RRT approx. 1.29-1.30 / Impurity RRT approx. 1.30-1.32 / Impurity RRT approx. 1.28-1.37 / Impurity RRT approx. 2.37 / Impurity RRT approx. 2.41-2.52 / Impurity RRT approx. 2.85 / Impurity RRT approx. 0.66-0.69 / Impurity RRT approx. 0.72-0.76: unit not given here; conditions: for Impurity RRT aprox 0.66-0.69 / Impurity RRT aprox 0.72-0.76 / Impurity RRT aprox 0.90-0.92 / Impurity RRT aprox 1.10-1.11: batches of Form B
# Description: Several batches of Form A of lurbinectedin were manufactured by this method.
# Several batches of Form B of lurbinectedin were manufactured by this method.
# [3] = Direct dissolution of lurbinectedin at 0.5 mg/mL in 0.03 M sodium lactate buffer pH 4; type: physicochemical
# Description: In embodiments, the lurbinectedin to be dissolved is at least partially crystalline. The lurbinectedin to be dissolved may be in the solid state form(s) described herein.
# TG-FTIR = type: physicochemical
# Method: TG-FTIR experiments were conducted with a Thermo-Microbalance TG-209 (Netzsch) equipped with a FT-IR Spectrometer Vector 22 (Bruker) using Al crucible (open or with microhole) under N2 atmosphere with a heating range between 25 and 250° C. and a heating rate of 10° C./min.
# DSC = type: physicochemical
# Method: DSC experiments were carried out with a Perkin Elmer DSC 7 using closed Au crucibles with a heating range between −50 to 250° C. and a heating rate of 10 or 20° C./min.
# [4] = DVS (dynamic vapor sorption); type: physicochemical
# Method: DVS experiments were carried out with a Projekt Messtechnik SPS 11-100n multi-sample water vapor sorption analyzer. The sample was allowed to equilibrate at 50% r.h. before starting a pre-defined humidity program. The program was: • 2 h at 50% r.h. • 50 to 0% r.h. (5%/h) • 5 h at 0% r.h. • 0 to 95% r.h (5%/h) • 5 h at 95% r.h. • 95 to 50% (5%/h) • 2 h at 50% r.h.
# [5] = irinotecan 125 mg/m2 (Camptosar label); n=64; mean (SD); cited from earlier work
# [6] = Lurbinectedin plus irinotecan trial: pharmacokinetics of lurbinectedin, irinotecan and SN-38; conditions: combination: lurbinectedin 1.0-2.4 mg/m2 + irinotecan 75 mg/m2; n=39; mean (SD)
# SCLC = test: Post-hoc exploratory analysis of response in SCLC patients who had previously received immunotherapy; type: in vivo, human; conditions: individual SCLC patients, therapy before lurbinectedin
# Description: Post-hoc exploratory analysis was done on the response in patients who had previously received immunotherapy (n=8).
# [7] = batches of Form B of lurbinectedin, listed as 1924128-LT
# [8] = impurity profile, listed as 1924128-LT
# [9] = batches of Form B of lurbinectedin
# [10] = batches of Form B of lurbinectedin, listed as 1924129-LT
# [11] = impurity profile, listed as 1924129-LT
# [12] = batches of Form A of lurbinectedin, listed as P04
# [13] = impurity profile, batches of Form A, listed as P04
# [14] = batches of Form A of lurbinectedin, listed as R05
# [15] = impurity profile, batches of Form A, listed as R05
molecule,measurement,setting,value
COc1ccc2[nH]c3c(c2c1)CCN[C@]31CS[C@@H]2c3c(OC(C)=O)c(C)c4c(c3[C@H](COC1=O)N1[C@@H]2[C@H]2c3c(cc(C)c(OC)c3O)C[C@@H]([C@@H]1O)N2C)OCO4 [Batch 1924128-LT],Average charge density (Q/m),[1]; listed as 1924128-LT,4.3 ± 0.4 nC/g
same,Dispersion of charge density (Q/m),[1]; listed as 1924128-LT,1.01 ± 0.3 nC/g
same,Total Impurities,[2]; [7],0.4 % Area
same,Water Content,[2]; [7],3.0 % w/w
same,Impurity RRT aprox 0.66-0.69,[2]; [8],0.06 % area
same,Impurity RRT aprox 0.72-0.76,[2]; [8],0.25 % area
same,Impurity RRT aprox 0.90-0.92,[2]; [8],0.07 % area
COc1ccc2[nH]c3c(c2c1)CCN[C@]31CS[C@@H]2c3c(OC(C)=O)c(C)c4c(c3[C@H](COC1=O)N1[C@@H]2[C@H]2c3c(cc(C)c(OC)c3O)C[C@@H]([C@@H]1O)N2C)OCO4 [Batch 1924129-LT],Average charge density (Q/m),[1]; listed as 1924129-LT,4.96 ± 2.0 nC/g
same,Dispersion of charge density (Q/m),[1]; listed as 1924129-LT,3.4 ± 1.4 nC/g
same,Residual Solvents Acetonitrile,[2]; [9],<LOQ
same,Residual Solvents CH2Cl2,[2]; [9],<LOQ
same,Residual Solvents Methanol,[2]; [9],<LOQ
same,Residual Solvents Pentane,[2]; [9],<LOQ
same,Residual Solvents Total,[2]; [9],0.0 % w/w
same,Total Impurities,[2]; [10],0.4 % Area
same,Water Content,[2]; [10],4.1 % w/w
same,Impurity RRT aprox 0.66-0.69,[2]; [11],0.07 % area
same,Impurity RRT aprox 0.72-0.76,[2]; [11],0.24 % area
same,Impurity RRT aprox 0.90-0.92,[2]; [11],0.08 % area
COc1ccc2[nH]c3c(c2c1)CCN[C@]31CS[C@@H]2c3c(OC(C)=O)c(C)c4c(c3[C@H](COC1=O)N1[C@@H]2[C@H]2c3c(cc(C)c(OC)c3O)C[C@@H]([C@@H]1O)N2C)OCO4 [Batch P04],Average charge density (Q/m),[1]; listed as P04,43.1 ± 3.86 nC/g
same,Dispersion of charge density (Q/m),[1]; listed as P04,7.6 ± 2.8 nC/g
same,Residual Solvents Ethyl acetate,[2]; batches of Form A of lurbinectedin,<LOQ
same,Impurities Total,[2]; [12],0.2 % Area
same,Residual Solvents Acetonitrile,[2]; [12],<LOQ
same,Residual Solvents Dichloro-methane,[2]; [12],<LOQ
same,Residual Solvents Hexane,[2]; [12],<LOQ
same,Residual Solvents Methanol,[2]; [12],1.6 % w/w
same,Residual Solvents Pentane,[2]; [12],0.5 % w/w
same,Residual Solvents Total,[2]; [12],2.1 % w/w
same,Water Content,[2]; [12],1.6 % w/w
same,Impurity RRT approx. 0.72-0.76,[2]; [13],0.09
same,Impurity RRT approx. 1.29-1.30,[2]; [13],0.10
COc1ccc2[nH]c3c(c2c1)CCN[C@]31CS[C@@H]2c3c(OC(C)=O)c(C)c4c(c3[C@H](COC1=O)N1[C@@H]2[C@H]2c3c(cc(C)c(OC)c3O)C[C@@H]([C@@H]1O)N2C)OCO4 [Batch R01],Residual Solvents AcOEt,[2]; [9],<LOQ
same,Residual Solvents Acetonitrile,[2]; [9],<LOQ
same,Residual Solvents CH2Cl2,[2]; [9],<LOQ
same,Residual Solvents Hexane,[2]; [9],<LOQ
same,Residual Solvents Methanol,[2]; [9],<LOQ
same,Residual Solvents Pentane,[2]; [9],<LOQ
same,Residual Solvents Total,[2]; [9],0.0 % w/w
same,Total Impurities,[2]; [9],0.3 % Area
same,Water Content,[2]; [9],1.9 % w/w
same,Impurity RRT aprox 0.72-0.76,[2]; impurity profile,0.22 % area
same,Impurity RRT aprox 1.10-1.11,[2]; impurity profile,0.09 % area
COc1ccc2[nH]c3c(c2c1)CCN[C@]31CS[C@@H]2c3c(OC(C)=O)c(C)c4c(c3[C@H](COC1=O)N1[C@@H]2[C@H]2c3c(cc(C)c(OC)c3O)C[C@@H]([C@@H]1O)N2C)OCO4 [Batch R02],Residual Solvents Acetonitrile,[2]; [9],<LOQ
same,Residual Solvents CH2Cl2,[2]; [9],<LOQ
same,Residual Solvents Pentane,[2]; [9],<LOQ
same,Residual Solvents Total,[2]; [9],0.0 % w/w
same,Total Impurities,[2]; [9],0.3 % Area
same,Water Content,[2]; [9],2.0 % w/w
same,Impurity RRT aprox 0.72-0.76,[2]; impurity profile,0.28 % area
COc1ccc2[nH]c3c(c2c1)CCN[C@]31CS[C@@H]2c3c(OC(C)=O)c(C)c4c(c3[C@H](COC1=O)N1[C@@H]2[C@H]2c3c(cc(C)c(OC)c3O)C[C@@H]([C@@H]1O)N2C)OCO4 [Batch R03],Residual Solvents Acetonitrile,[2]; [9],<LOQ
same,Residual Solvents CH2Cl2,[2]; [9],<LOQ
same,Residual Solvents Methanol,[2]; [9],<LOQ
same,Residual Solvents Pentane,[2]; [9],<LOQ
same,Residual Solvents Total,[2]; [9],0.0 % w/w
same,Total Impurities,[2]; [9],0.3 % Area
same,Water Content,[2]; [9],1.7 % w/w
same,Impurity RRT aprox 0.66-0.69,[2]; impurity profile,0.05 % area
same,Impurity RRT aprox 0.72-0.76,[2]; impurity profile,0.22 % area
COc1ccc2[nH]c3c(c2c1)CCN[C@]31CS[C@@H]2c3c(OC(C)=O)c(C)c4c(c3[C@H](COC1=O)N1[C@@H]2[C@H]2c3c(cc(C)c(OC)c3O)C[C@@H]([C@@H]1O)N2C)OCO4 [Batch R04],Residual Solvents Acetonitrile,[2]; [9],<LOQ
same,Residual Solvents CH2Cl2,[2]; [9],<LOQ
same,Residual Solvents Methanol,[2]; [9],<LOQ
same,Residual Solvents Pentane,[2]; [9],<LOQ
same,Residual Solvents Total,[2]; [9],0.0 % w/w
same,Total Impurities,[2]; [9],0.4 % Area
same,Water Content,[2]; [9],2.6 % w/w
same,Impurity RRT aprox 0.66-0.69,[2]; impurity profile,0.05 % area
same,Impurity RRT aprox 0.72-0.76,[2]; impurity profile,0.26 % area
same,Impurity RRT aprox 1.10-1.11,[2]; impurity profile,0.07 % area
COc1ccc2[nH]c3c(c2c1)CCN[C@]31CS[C@@H]2c3c(OC(C)=O)c(C)c4c(c3[C@H](COC1=O)N1[C@@H]2[C@H]2c3c(cc(C)c(OC)c3O)C[C@@H]([C@@H]1O)N2C)OCO4 [Batch R05],Average charge density (Q/m),[1]; listed as R05,64.02 ± 7.98 nC/g
same,Dispersion of charge density (Q/m),[1]; listed as R05,15.23 ± 5.64 nC/g
same,Impurities Total,[2]; [14],0.4 % Area
same,Residual Solvents Acetonitrile,[2]; [14],<LOQ
same,Residual Solvents Dichloro-methane,[2]; [14],<LOQ
same,Residual Solvents Hexane,[2]; [14],<LOQ
same,Residual Solvents Methanol,[2]; [14],2.2 % w/w
same,Residual Solvents Pentane,[2]; [14],0.3 % w/w
same,Residual Solvents Total,[2]; [14],2.5 % w/w
same,Water Content,[2]; [14],1.1 % w/w
same,Impurity RRT approx. 2.37,"[2]; impurity profile, batches of Form A",0.13
same,Impurity RRT approx. 0.72-0.76,[2]; [15],0.10
same,Impurity RRT approx. 1.10-1.11,[2]; [15],0.09
same,Impurity RRT approx. 1.29-1.30,[2]; [15],0.05
COc1ccc2[nH]c3c(c2c1)CCN[C@]31CS[C@@H]2c3c(OC(C)=O)c(C)c4c(c3[C@H](COC1=O)N1[C@@H]2[C@H]2c3c(cc(C)c(OC)c3O)C[C@@H]([C@@H]1O)N2C)OCO4 [Form A of lurbinectedin],Time to complete direct dissolution,[3]; 0.5 mg/mL in 0.03 M sodium lactate buffer pH 4,approximately 30 minutes
COc1ccc2[nH]c3c(c2c1)CCN[C@]31CS[C@@H]2c3c(OC(C)=O)c(C)c4c(c3[C@H](COC1=O)N1[C@@H]2[C@H]2c3c(cc(C)c(OC)c3O)C[C@@H]([C@@H]1O)N2C)OCO4 [Form B of lurbinectedin],Degradation temperature by TG-FTIR,TG-FTIR,above 150 °C
same,Release of water by TG-FTIR,TG-FTIR,2.6%
same,Temperature at which degradation begins by DSC,DSC,above 130 °C
same,Deliquescence by DVS,[4],not deliquescent
same,Hygroscopicity by DVS,[4],hygroscopic
same,DVS mass change Δm,[4]; 50 to 96% r.h.,4%
same,Fraction of the target concentration reached,"[3]; 0.5 mg/mL in 0.03 M sodium lactate buffer pH 4, in 2 hours",60-70%
CCc1c2c(nc3ccc(O)cc13)-c1cc3c(c(=O)n1C2)COC(=O)[C@]3(O)CC [SN-38],Cmax,[5],26.3 (11.9) ug/L
same,HL,[5],21.0 (20) h
same,CL,[6],810.3 (574) L/h
same,Cmax,[6],18.1 (7.7) ug/L
same,HL,[6],18.6 (9.1) h
same,Vz,[6],18232.3 (8208.4) L
"CCc1c2c(nc3ccc(OC(=O)N4CCC(N5CCCCC5)CC4)cc13)-c1cc3c(c(=O)n1C2)COC(=O)[C@]3(O)CC [irinotecan, reference compound]",HL,[5],11.7 (9) h
Nivolumab,Last prior therapy: TTP,SCLC; resistant disease,2.2 months and 4.1 months and 2.5 months
same,Last prior therapy: TTP,SCLC; sensitive disease,1.8 months and 1.4 months
